This assay has as its system BDF1 mice, M5076 sarcoma ip, median survival T/C. The experiment in a line: NCI In Vivo Anticancer Drug Screen. Data for tumor model Sarcoma M5076 (intraperitoneal) in B6D2F1 (BDF1) mice. The conditions noted are these: endpoint: median survival time, higher = longer survival. How it is done:
The antitumor activity of compounds was measured in mice bearing transplantable tumors. Survival or tumor size were measured and the results are expressed as the measurement made in the treated group (T) divided by the measurement made in the vehicle treated control group (C). The tumor model used in this assay is Sarcoma M5076 (intraperitoneal) in B6D2F1 (BDF1) mice

[1] abbreviates: dose: 50.0 mg/kg/injection, schedule: Q04DX004 (ip), vehicle: saline with Tween-80.
Setting [2] is: dose: 100.0 mg/kg/injection, schedule: Q04DX004 (ip), vehicle: saline with Tween-80.
Setting [3] is: dose: 200.0 mg/kg/injection, schedule: Q04DX004 (ip), vehicle: saline with Tween-80.

Several values for one entry are separate records, joined by “and”; a condition that tells them apart may be missing. Equal values may be shown once. Inconclusive results and toxic doses are left out.

`COc1cc(C)c(C2NC(=O)c3ccccc3N2)cc1C` (stereo unspecified): the T/C by setting is: (dose: 12.5 mg/kg/injection, schedule: Q04DX004 (ip), vehicle: saline with Tween-80) 102 % of control; (dose: 25.0 mg/kg/injection, schedule: Q04DX004 (ip), vehicle: saline with Tween-80) 102 % of control; under setting [1], 90 % of control; under setting [2], 105 % of control; under setting [3], 124 % of control.

`CCCCCCCCCCCCCCCC(=O)O[C@@H]1[C@@H](C)[C@@]2(O)[C@@H](C=C(CO)C[C@]3(O)C(=O)C(C)=C[C@@H]23)[C@H]2[C@]1(OC(C)=O)[C@]2(C)CO`: the T/C is, setting by setting: (dose: 62.5 micrograms/kg/injection, schedule: Q01DX009 (ip), vehicle: distilled water + Tween-80) 117 % of control; (dose: 125.0 micrograms/kg/injection, schedule: Q01DX009 (ip), vehicle: distilled water + Tween-80) 121 % of control; (dose: 250.0 micrograms/kg/injection, schedule: Q01DX009 (ip), vehicle: distilled water + Tween-80) 122 % of control.

For the molecule `CC(/C=N/N=C(N)N)=N\N=C(N)N`, the T/C (dose: 32.4 mg/kg/injection, schedule: Q04DX005 (ip), vehicle: saline) is 110 % of control; the T/C (dose: 54.0 mg/kg/injection, schedule: Q04DX005 (ip), vehicle: saline) was 96 % of control; the T/C (dose: 90.0 mg/kg/injection, schedule: Q04DX005 (ip), vehicle: saline) was 110 % of control.

In the case of `CC(=O)N(C)O`, the T/C is 99 % of control (dose: 37.0 mg/kg/injection, schedule: Q04DX004 (ip), vehicle: saline with Tween-80); 107 % of control (dose: 75.0 mg/kg/injection, schedule: Q04DX004 (ip), vehicle: saline with Tween-80); 107 % of control (dose: 150.0 mg/kg/injection, schedule: Q04DX004 (ip), vehicle: saline with Tween-80); 113 % of control (dose: 300.0 mg/kg/injection, schedule: Q04DX004 (ip), vehicle: saline with Tween-80); 103 % of control (dose: 600.0 mg/kg/injection, schedule: Q04DX004 (ip), vehicle: saline with Tween-80).

Take `CC(=O)OCc1cc(=O)n(C)c2c3c4c(cc12)c(C)cc(=O)n4CO3`: the T/C was 102 % of control (dose: 4.0 mg/kg/injection, schedule: Q01DX009 (ip), vehicle: Klucel (hydroxypropylcellulose) (HPC)); 102 % of control (dose: 5.0 mg/kg/injection, schedule: Q04DX005 (ip), vehicle: Klucel (hydroxypropylcellulose) (HPC)); 100 % of control (dose: 8.0 mg/kg/injection, schedule: Q01DX009 (ip), vehicle: Klucel (hydroxypropylcellulose) (HPC)); 100 % of control (dose: 10.0 mg/kg/injection, schedule: Q04DX005 (ip), vehicle: Klucel (hydroxypropylcellulose) (HPC)); 99 % of control (dose: 16.0 mg/kg/injection, schedule: Q01DX009 (ip), vehicle: Klucel (hydroxypropylcellulose) (HPC)); 165 % of control (dose: 20.0 mg/kg/injection, schedule: Q01DX009 (ip), vehicle: Klucel (hydroxypropylcellulose) (HPC)). Further, the T/C is 116 % of control and 118 % of control (dose: 20.0 mg/kg/injection, schedule: Q04DX005 (ip), vehicle: Klucel (hydroxypropylcellulose) (HPC)); 99 % of control (dose: 32.0 mg/kg/injection, schedule: Q01DX009 (ip), vehicle: Klucel (hydroxypropylcellulose) (HPC)); 179 % of control (dose: 40.0 mg/kg/injection, schedule: Q01DX009 (ip), vehicle: Klucel (hydroxypropylcellulose) (HPC)); 102 % of control (dose: 40.0 mg/kg/injection, schedule: Q04DX005 (ip), vehicle: Klucel (hydroxypropylcellulose) (HPC)); 103 % of control (dose: 64.0 mg/kg/injection, schedule: Q01DX009 (ip), vehicle: Klucel (hydroxypropylcellulose) (HPC)); 92 % of control and 95 % of control (dose: 80.0 mg/kg/injection, schedule: Q04DX005 (ip), vehicle: Klucel (hydroxypropylcellulose) (HPC)).

Consider `Cc1c2ccncc2c(C)c2c1[nH]c1ccccc12`, for which the T/C reads like this: (dose: 40.0 mg/kg/injection, schedule: Q04DX004 (ip), vehicle: saline with Tween-80) 170 % of control; (dose: 80.0 mg/kg/injection, schedule: Q04DX004 (ip), vehicle: saline with Tween-80) 191 % of control.

Regarding `C=C1C(=O)OC2C(OC(C)=O)C1C(OC(=O)C(C)CC)[C@]1(C)C(=O)C=C[C@H]1[C@@H]2C` (stereo partly specified), the T/C reads like this: (dose: 1.25 mg/kg/injection, schedule: Q01DX009 (ip), vehicle: Klucel (hydroxypropylcellulose) (HPC)) 110 % of control; (dose: 2.5 mg/kg/injection, schedule: Q01DX009 (ip), vehicle: Klucel (hydroxypropylcellulose) (HPC)) 107 % of control; (dose: 5.0 mg/kg/injection, schedule: Q01DX009 (ip), vehicle: Klucel (hydroxypropylcellulose) (HPC)) 101 % of control; (dose: 10.0 mg/kg/injection, schedule: Q01DX009 (ip), vehicle: Klucel (hydroxypropylcellulose) (HPC)) 110 % of control.

Turning to `Nc1ccn(C2OC(CO)C(O)C2O)c(=O)n1` (stereo unspecified), the T/C was 164 % of control (dose: 125.0 mg/kg/injection, schedule: Q04DX005 (ip), vehicle: saline); 184 % of control (dose: 250.0 mg/kg/injection, schedule: Q04DX005 (ip), vehicle: saline); 185 % of control (dose: 500.0 mg/kg/injection, schedule: Q04DX005 (ip), vehicle: saline); 199 % of control (dose: 1000.0 mg/kg/injection, schedule: Q04DX005 (ip), vehicle: saline).

Turning to `O=C1N[C@H]2[C@H](O)[C@H](O)[C@@H](O)[C@H](O)[C@@H]2c2cc3c(c(O)c21)OCO3`, the T/C was 153 % of control (dose: 0.38 mg/kg/injection, schedule: Q01DX009 (ip), vehicle: saline + alcohol); 159 % of control (dose: 0.75 mg/kg/injection, schedule: Q01DX009 (ip), vehicle: saline + alcohol); 161 % of control and 166 % of control (dose: 1.5 mg/kg/injection, schedule: Q01DX009 (ip), vehicle: saline + alcohol); 184 % of control and 165 % of control (dose: 3.0 mg/kg/injection, schedule: Q01DX009 (ip), vehicle: saline + alcohol).

As for `C=C1C(=O)OC2C1C(OC(=O)/C(C)=C\C)CC(C)=C1C(=O)C3OC3(C)C12O` (stereo unspecified), the T/C is, setting by setting: (dose: 1.25 mg/kg/injection, schedule: Q01DX009 (ip), vehicle: saline + alcohol) 97 % of control; (dose: 2.5 mg/kg/injection, schedule: Q01DX009 (ip), vehicle: saline + alcohol) 105 % of control; (dose: 5.0 mg/kg/injection, schedule: Q01DX009 (ip), vehicle: saline + alcohol) 105 % of control and 121 % of control; (dose: 20.0 mg/kg/injection, schedule: Q01DX009 (ip), vehicle: saline + alcohol) 117 % of control.

Consider `O=C(O)CC(NC(=O)CP(=O)(O)O)C(=O)O` (stereo unspecified), for which the T/C (dose: 50.0 mg/kg/injection, schedule: Q04DX005 (ip), vehicle: saline) is 164 % of control; the T/C (dose: 100.0 mg/kg/injection, schedule: Q04DX005 (ip), vehicle: saline) was 180 % of control; the T/C (dose: 108.0 mg/kg/injection, schedule: Q04DX004 (ip), vehicle: saline) was 178 % of control; the T/C (dose: 180.0 mg/kg/injection, schedule: Q04DX004 (ip), vehicle: saline) is 195 % of control; the T/C (dose: 200.0 mg/kg/injection, schedule: Q04DX005 (ip), vehicle: saline) is 165 % of control; the T/C (dose: 300.0 mg/kg/injection, schedule: Q04DX004 (ip), vehicle: saline) was 195 % of control. The T/C reads like this: (dose: 400.0 mg/kg/injection, schedule: Q04DX005 (ip), vehicle: saline) 184 % of control and 200 % of control; (dose: 500.0 mg/kg/injection, schedule: Q04DX004 (ip), vehicle: saline) 204 % of control; (dose: 833.0 mg/kg/injection, schedule: Q04DX004 (ip), vehicle: saline) 216 % of control.

As for `O=C1c2ccccc2C(Cl)(c2ccc(Cl)cc2)c2ccc(Cl)cc21` (stereo unspecified), the T/C under setting [1] was 116 % of control; the T/C under setting [2] was 107 % of control; the T/C under setting [3] was 108 % of control; the T/C (dose: 400.0 mg/kg/injection, schedule: Q04DX004 (ip), vehicle: saline with Tween-80) was 100 % of control.

For the molecule `Nc1nc(=S)c2[nH]cnc2[nH]1`, the T/C reads like this: (dose: 0.75 mg/kg/injection, schedule: Q04DX005 (ip), vehicle: alkali diluted with saline) 101 % of control; (dose: 2.0 mg/kg/injection, schedule: Q04DX005 (ip), vehicle: alkali diluted with saline) 92 % of control; (dose: 6.0 mg/kg/injection, schedule: Q04DX005 (ip), vehicle: alkali diluted with saline) 157 % of control.

In the case of `COC(=O)[C@@]12OC[C@]34[C@H]([C@@H](O)[C@@H]1O)[C@@]1(C)CC(=O)C(O)=C(C)[C@@H]1C[C@H]3OC(=O)[C@H](OC(=O)/C=C(\C)C(C)C)[C@@H]24`, the T/C runs as follows: (dose: 0.12 mg/kg/injection, schedule: Q04DX004 (ip), vehicle: saline) 104 % of control and 107 % of control and 113 % of control; (dose: 0.12 mg/kg/injection, schedule: Q04DX005 (ip), vehicle: saline) 108 % of control (2×) and 116 % of control; (dose: 0.13 mg/kg/injection, schedule: Q04DX004 (ip), vehicle: saline) 111 % of control and 114 % of control; (dose: 0.13 mg/kg/injection, schedule: Q04DX005 (ip), vehicle: saline) 106 % of control and 114 % of control.

Source of the values: PubChem BioAssay AID286 (DTP/NCI, 2004).
